Values quoted from earlier work as cited in patent US4181677A, “2-Benzoyl-3-alkoxy-2-alkenonitriles” (American Cyanamid Company, priority 1978, dated 1980).

Tested on: joint and bone deterioration
Conditions: S. Wong et al. (1973); G. R. Bobalick et al. (1974)

## COc1ccc2c(c1)c(CC(=O)O)c(C)n2C(=O)c1ccc(Cl)cc1 [Indomethacin]
  prevention of joint and bone deterioration: prevent joint and bone deterioration
